≈ marks a conversion by molar mass, not a printed value.
Key:
Assay type in all cases: cell-based
[1] = test system: Staphylococcus aureus ATCC 6538P; experiment: In vitro agar dilution MIC, organism code AA; conditions: Table 1B, unit assumed
Outline: (§1)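 A same-class reference antibiotic with known susceptibility was run alongside as a control for test-to-test comparability. Test compound was incorporated into BHI agar at twelve successive dilutions, spot-inoculated, incubated 20-24 h at 35-37° C, and MIC scored visually.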

[2] = test system: Staphylococcus aureus A5177; experiment: In vitro agar dilution MIC, organism code BB; conditions: Table 1B, in µg/mL (unit assumed)
Outline: as §1

[3] = test system: Staphylococcus aureus A-5278; experiment: In vitro agar dilution MIC, organism code CC; conditions: Table 1B, unit assumed
Outline: as §1

[4] = test system: Staphylococcus aureus CMX 642A; experiment: In vitro agar dilution MIC, organism code DD; conditions: Table 1B, unit assumed
Outline: as §1

[5] = test system: Staphylococcus aureus NCTC10649M; experiment: In vitro agar dilution MIC, organism code EE; conditions: Table 1B, unit assumed
Outline: as §1

[6] = test system: Staphylococcus aureus CMX 553; experiment: In vitro agar dilution MIC, organism code FF; conditions: Table 1B, unit assumed
Outline: as §1

[7] = test system: Staphylococcus aureus 1775; experiment: In vitro agar dilution MIC, organism code GG; conditions: Table 1B, unit assumed
Outline: as §1

[8] = test system: Staphylococcus epidermidis 3519; experiment: In vitro agar dilution MIC, organism code HH; conditions: Table 1B, in µg/mL (unit assumed)
Outline: as §1

[9] = test system: Enterococcus faecium ATCC 8043; experiment: In vitro agar dilution MIC, organism code II; conditions: Table 1B, unit assumed
Outline: as §1

[10] = test system: Streptococcus bovis A-5169; experiment: In vitro agar dilution MIC, organism code JJ; conditions: Table 1B, unit assumed
Outline: as §1

[11] = test system: Streptococcus agalactiae CMX 508; experiment: In vitro agar dilution MIC, organism code KK; conditions: Table 1B, unit assumed
Outline: as §1

[12] = test system: Streptococcus pyogenes EES61; experiment: In vitro agar dilution MIC, organism code LL; conditions: unit assumed
Outline: as §1

[13] = test system: Streptococcus pyogenes 930; experiment: In vitro agar dilution MIC, organism code MM; conditions: unit assumed
Outline: as §1

[14] = test system: Streptococcus pyogenes PIU 2548; experiment: In vitro agar dilution MIC, organism code NN; conditions: unit assumed
Outline: as §1

[15] = test system: Micrococcus luteus ATCC 9341; experiment: In vitro agar dilution MIC, organism code OO; conditions: Table 1B, unit assumed
Outline: as §1

[16] = test system: Micrococcus luteus ATCC 4698; experiment: In vitro agar dilution MIC, organism code PP; conditions: Table 1B, in µg/mL (unit assumed)
Outline: as §1

Escherichia coli JUHL = experiment: In vitro agar dilution MIC, organism code QQ; conditions: Table 1B, in µg/mL (unit assumed)
Outline: as §1

Escherichia coli SS = experiment: In vitro agar dilution MIC, organism code RR; conditions: Table 1B, in µg/mL (unit assumed)
Outline: as §1

Escherichia coli DC-2 = experiment: In vitro agar dilution MIC, organism code SS; conditions: Table 1B, unit assumed
Outline: as §1

Candida albicans CCH 442 = experiment: In vitro agar dilution MIC, organism code TT; conditions: Table 1B, unit assumed
Outline: as §1

[17] = test system: Mycobacterium smegmatis ATCC 114; experiment: In vitro agar dilution MIC, organism code UU; conditions: Table 1B, in µg/mL (unit assumed)
Outline: as §1

[18] = test system: Nocardia asteroides ATCC 9970; experiment: In vitro agar dilution MIC, organism code VV; conditions: Table 1B, in µg/mL (unit assumed)
Outline: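 BHI agar dilution, twelve plates; inoculum 1:100, 1:10 for Streptococcus/Micrococcus; Steers replicator; 35-37° C, 20-24 h. Endpoint: no growth/slight haze/sparse colonies vs. no-drug control. Erythromycin A reference plate.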

[19] = test system: Haemophilis influenzae DILL AMP R; experiment: In vitro agar dilution MIC, organism code WW; conditions: unit assumed
Outline: as §1

[20] = test system: Streptococcus pneumoniae ATCC 6303; experiment: In vitro agar dilution MIC, organism code XX; conditions: unit assumed
Outline: as §1

[21] = test system: Streptococcus pneumoniae GYR 1171; experiment: In vitro agar dilution MIC, organism code YY; conditions: Table 1B, unit assumed
Outline: as §1

[22] = test system: Streptococcus pneumoniae 5979; experiment: In vitro agar dilution MIC, organism code ZZ; conditions: unit assumed
Outline: as §1

[23] = test system: Streptococcus pneumoniae 5649; experiment: In vitro agar dilution MIC, organism code ZZA; conditions: unit assumed
Outline: as §1

Compound	MIC [1] [µg/mL]	MIC [2]	MIC [3] [µg/mL]	MIC [4] [µg/mL]	MIC [5] [µg/mL]	MIC [6] [µg/mL]	MIC [7] [µg/mL]	MIC [8]	MIC [9] [µg/mL]	MIC [10] [µg/mL]	MIC [11] [µg/mL]	MIC ([12]; Table 1B) [µg/mL]	MIC ([13]; Table 1B) [µg/mL]	MIC ([14]; Table 1B) [µg/mL]	MIC [15] [µg/mL]	MIC [16]	MIC (Escherichia coli JUHL)	MIC (Escherichia coli SS)	MIC (Escherichia coli DC-2) [µg/mL]	MIC (Candida albicans CCH 442) [µg/mL]	further results
CC[C@H]1OC(=O)[C@@](C)(F)C(=O)[C@H](C)[C@@H](O[C@@H]2O[C@H](C)C[C@H](N(C)C)[C@H]2O)[C@](C)(OC/C=C/c2ccc3nccnc3c2)C[C@@H](C)C(=O)[C@H](C)[C@H]2NC(=O)O[C@@]21C [Example 12]	0.05 (≈ 0.0637 µM)	0.05	> 100	0.05 (≈ 0.0637 µM)	0.05 (≈ 0.0637 µM)	0.05 (≈ 0.0637 µM)	> 100	0.05	0.01 (≈ 0.0127 µM)	≤ 0.005	0.01 (≈ 0.0127 µM)	0.01 (≈ 0.0127 µM)	0.2 (≈ 0.255 µM)	0.05 (≈ 0.0637 µM)	≤ 0.005	0.05	12.5	0.1	12.5 (≈ 15.9 µM)	> 100	MIC ([12]; Table 1D): ≤ 0.04 µg/mL; MIC ([13]; Table 1D): 0.5 µg/mL (≈ 0.637 µM); MIC ([14]; Table 1D): 0.125 µg/mL (≈ 0.159 µM); MIC [17]: 0.2; MIC [18]: ≤ 0.005; MIC ([19]; Table 1B): 2 µg/mL (≈ 2.55 µM); MIC ([19]; Table 1D): 2 µg/mL (≈ 2.55 µM); MIC ([20]; Table 1B): ≤ 0.004 µg/mL; MIC ([20]; Table 1D): ≤ 0.004 µg/mL; MIC [21]: ≤ 0.004 µg/mL; MIC ([22]; Table 1B): 1 µg/mL (≈ 1.27 µM); MIC ([22]; Table 1D): 1 µg/mL (≈ 1.27 µM); MIC ([23]; Table 1B): 0.125 µg/mL (≈ 0.159 µM); MIC ([23]; Table 1D): 0.125 µg/mL (≈ 0.159 µM)
CC[C@H]1OC(=O)[C@@](C)(F)C(=O)[C@H](C)[C@@H](O[C@@H]2O[C@H](C)C[C@H](N(C)C)[C@H]2O)[C@](C)(OC/C=C/c2cnc3ccc(N(C)C)cc3c2)C[C@@H](C)C(=O)[C@H](C)[C@H]2NC(=O)O[C@@]21C [Example 13]	0.2 (≈ 0.242 µM)	0.2	> 100	0.2 (≈ 0.242 µM)	0.2 (≈ 0.242 µM)	0.2 (≈ 0.242 µM)	> 100	0.2	0.1 (≈ 0.121 µM)	0.02 (≈ 0.0242 µM)	0.02 (≈ 0.0242 µM)	0.05 (≈ 0.0605 µM)	0.78 (≈ 0.943 µM)	0.2 (≈ 0.242 µM)	0.02 (≈ 0.0242 µM)	0.2	50	0.78	100 (≈ 121 µM)	> 100	MIC [17]: 0.78; MIC [18]: 0.05; MIC ([19]; Table 1B): 8 µg/mL (≈ 9.67 µM); MIC ([20]; Table 1B): 0.06 µg/mL (≈ 0.0726 µM); MIC [21]: 0.06 µg/mL (≈ 0.0726 µM); MIC ([22]; Table 1B): 1 µg/mL (≈ 1.21 µM); MIC ([23]; Table 1B): 0.5 µg/mL (≈ 0.605 µM)
CC[C@H]1OC(=O)[C@@](C)(F)C(=O)[C@H](C)[C@@H](O[C@@H]2O[C@H](C)C[C@H](N(C)C)[C@H]2O)[C@](C)(OC/C=C/c2cnc3ccc(C(N)=O)cc3c2)C[C@@H](C)C(=O)[C@H](C)[C@H]2NC(=O)O[C@@]21C [Example 15]	0.05 (≈ 0.0605 µM)	0.05	> 100	0.05 (≈ 0.0605 µM)	0.05 (≈ 0.0605 µM)	0.05 (≈ 0.0605 µM)	> 100	0.05	0.05 (≈ 0.0605 µM)	0.01 (≈ 0.0121 µM)	0.01 (≈ 0.0121 µM)	0.01 (≈ 0.0121 µM)	0.1 (≈ 0.121 µM)	0.1 (≈ 0.121 µM)	0.01 (≈ 0.0121 µM)	0.05	25	0.2	12.5 (≈ 15.1 µM)	> 100	MIC [17]: 0.39; MIC [18]: 0.05; MIC ([19]; Table 1B): 4 µg/mL (≈ 4.84 µM); MIC ([20]; Table 1B): ≤ 0.004 µg/mL; MIC [21]: ≤ 0.004 µg/mL; MIC ([22]; Table 1B): 0.5 µg/mL (≈ 0.605 µM); MIC ([23]; Table 1B): 0.25 µg/mL (≈ 0.302 µM)
CC[C@H]1OC(=O)[C@@](C)(F)C(=O)[C@H](C)[C@@H](O[C@@H]2O[C@H](C)C[C@H](N(C)C)[C@H]2O)[C@](C)(OC/C=C/c2cnc3ccc(NC)cc3c2)C[C@@H](C)C(=O)[C@H](C)[C@H]2NC(=O)O[C@@]21C [Example 16]	0.05 (≈ 0.0615 µM)	0.05	> 100	0.05 (≈ 0.0615 µM)	0.05 (≈ 0.0615 µM)	0.05 (≈ 0.0615 µM)	> 100	0.05	0.02 (≈ 0.0246 µM)	≤ 0.005	0.01 (≈ 0.0123 µM)	0.01 (≈ 0.0123 µM)	0.39 (≈ 0.48 µM)	0.05 (≈ 0.0615 µM)	0.01 (≈ 0.0123 µM)	0.05	50	0.2	50 (≈ 61.5 µM)	> 100	MIC [17]: 0.39; MIC [18]: 0.01; MIC ([19]; Table 1B): 2 µg/mL (≈ 2.46 µM); MIC ([20]; Table 1B): 0.03 µg/mL (≈ 0.0369 µM); MIC [21]: 0.03 µg/mL (≈ 0.0369 µM); MIC ([22]; Table 1B): 1 µg/mL (≈ 1.23 µM); MIC ([23]; Table 1B): 0.25 µg/mL (≈ 0.308 µM)
CC[C@H]1OC(=O)[C@@](C)(F)C(=O)[C@H](C)[C@@H](O[C@@H]2O[C@H](C)C[C@H](N(C)C)[C@H]2O)[C@](C)(OC/C=C/c2cnc3ccc(C=O)cc3c2)C[C@@H](C)C(=O)[C@H](C)[C@H]2NC(=O)O[C@@]21C [Example 17]	0.05 (≈ 0.0616 µM)	0.1	> 100	0.1 (≈ 0.123 µM)	0.2 (≈ 0.246 µM)	0.1 (≈ 0.123 µM)	> 100	0.1	0.05 (≈ 0.0616 µM)	0.01 (≈ 0.0123 µM)	0.02 (≈ 0.0246 µM)	0.02 (≈ 0.0246 µM)	0.78 (≈ 0.961 µM)	0.2 (≈ 0.246 µM)	0.02 (≈ 0.0246 µM)	0.05	100	0.78	100 (≈ 123 µM)	> 100	MIC [17]: 0.39; MIC [18]: 0.02; MIC ([19]; Table 1B): 2 µg/mL (≈ 2.46 µM); MIC ([20]; Table 1B): 0.03 µg/mL (≈ 0.0369 µM); MIC [21]: 0.015 µg/mL (≈ 0.0185 µM); MIC ([22]; Table 1B): 1 µg/mL (≈ 1.23 µM); MIC ([23]; Table 1B): 0.5 µg/mL (≈ 0.616 µM)
CC[C@H]1OC(=O)[C@@](C)(F)C(=O)[C@H](C)[C@@H](O[C@@H]2O[C@H](C)C[C@H](N(C)C)[C@H]2O)[C@](C)(OC/C=C/c2cnc3ccc(C=NO)cc3c2)C[C@@H](C)C(=O)[C@H](C)[C@H]2NC(=O)O[C@@]21C [Example 18]	0.02 (≈ 0.0242 µM)	0.05	50 (≈ 60.5 µM)	0.05 (≈ 0.0605 µM)	0.05 (≈ 0.0605 µM)	0.05 (≈ 0.0605 µM)	50 (≈ 60.5 µM)	0.05	0.02 (≈ 0.0242 µM)	≤ 0.005	0.01 (≈ 0.0121 µM)	≤ 0.005	0.2 (≈ 0.242 µM)	0.02 (≈ 0.0242 µM)	0.01 (≈ 0.0121 µM)	0.02	25	0.2	50 (≈ 60.5 µM)	> 100	MIC [17]: 0.78; MIC [18]: 0.01; MIC ([19]; Table 1B): 2 µg/mL (≈ 2.42 µM); MIC ([20]; Table 1B): 0.015 µg/mL (≈ 0.0181 µM); MIC [21]: 0.015 µg/mL (≈ 0.0181 µM); MIC ([22]; Table 1B): 0.25 µg/mL (≈ 0.302 µM); MIC ([23]; Table 1B): 0.25 µg/mL (≈ 0.302 µM)

Source: patent US6124269A, “2-Halo-6-O-substituted ketolide derivatives” (priority 1998, dated 2000)
